Data on 3 compounds can be found in ChEMBL document CHEMBL1140186, “Hunter-killer peptide (HKP) for targeted therapy” (2008).

SMILES strings stand for the structures. Active and inactive are the calls of the source. The rule behind the calls is not given here. Bridge positions count the residues as written; N and C are the ends. Square brackets hold non-standard residues; d marks the D form. Peptide text beside a SMILES is read from it.

In assay [1] the test system is Mus musculus. Nature of the assay: Induction of weight loss in sc dosed high fat diet fed mouse after 4 weeks. Type of assay: functional.
Assay [2] concerns Mus musculus. Nature of the assay: Reduction in epididymal fat pad size in sc dosed high fat diet fed mouse after 4 weeks relative to control. Type of assay: functional. Also on record: scale not given: the % may be the effect or the level left.
The test system of a further assay is MDA-MB-435. In words: Antitumor activity against human MDA-MB-435 cells xenografted mouse assessed as survival after 120 days. Type of assay: functional. For orientation: In xenograft studies the graft and the host belong to different species.
The species named for assay [3] is Mus musculus. Nature of the assay: Increase in survival of transgenic mouse prostate adenocarcinoma model after 6 to 8 weeks. Type of assay: functional, organism-based. Particulars: Prostate gland.

Turning to `CC(C)C[C@@H](NC(=O)[C@@H](CCCCN)NC(=O)CNC(=O)CNC(=O)[C@@H]1CSSC[C@H](N)C(=O)N[C@@H](CCCCN)C(=O)NCC(=O)NCC(=O)N[C@@H](CCCNC(=N)N)C(=O)N[C@@H](C)C(=O)N[C@@H](CCCCN)C(=O)N[C@@H](CC(=O)O)C(=O)N1)C(=O)N[C@H](C)C(=O)N[C@H](CCCCN)C(=O)N[C@H](CC(C)C)C(=O)N[C@H](C)C(=O)N[C@H](CCCCN)C(=O)N[C@H](CCCCN)C(=O)N[C@H](CC(C)C)C(=O)N[C@H](C)C(=O)N[C@H](CCCCN)C(=O)N[C@H](CC(C)C)C(=O)N[C@H](C)C(=O)N[C@H](CCCCN)C(=O)O` (H-CKGGRAKDCGG[dK][dL][dA][dK][dL][dA][dK][dK][dL][dA][dK][dL][dA][dK]-OH; disulfide 1-9), the values for the Activity in the assay on Mus musculus [1] and in the assay with Mus musculus [2] were 30% and above 70%, respectively.

For `CC(C)C[C@@H](NC(=O)[C@@H](CCCCN)NC(=O)CNC(=O)CNC(=O)[C@@H]1CSSC[C@H](N)C(=O)N[C@@H](CC(N)=O)C(=O)NCC(=O)N[C@@H](CCCNC(=N)N)C(=O)N1)C(=O)N[C@H](C)C(=O)N[C@H](CCCCN)C(=O)N[C@H](CC(C)C)C(=O)N[C@H](C)C(=O)N[C@H](CCCCN)C(=O)N[C@H](CCCCN)C(=O)N[C@H](CC(C)C)C(=O)N[C@H](C)C(=O)N[C@H](CCCCN)C(=O)N[C@H](CC(C)C)C(=O)N[C@H](C)C(=O)N[C@H](CCCCN)C(=O)O` (H-CNGRCGG[dK][dL][dA][dK][dL][dA][dK][dK][dL][dA][dK][dL][dA][dK]-OH; disulfide 1-5), the Survival in the assay on MDA-MB-435 is on record as 60%.

Consider `CC[C@H](C)[C@H](NC(=O)[C@H](CO)NC(=O)[C@H](CCSC)NC(=O)[C@@H](N)CO)C(=O)N[C@@H](C)C(=O)N[C@@H](CCCNC(=N)N)C(=O)N[C@@H](CC(C)C)C(=O)NCC(=O)NCC(=O)N[C@H](CCCCN)C(=O)N[C@H](CC(C)C)C(=O)N[C@H](C)C(=O)N[C@H](CCCCN)C(=O)N[C@H](CC(C)C)C(=O)N[C@H](C)C(=O)N[C@H](CCCCN)C(=O)N[C@H](CCCCN)C(=O)N[C@H](CC(C)C)C(=O)N[C@H](C)C(=O)N[C@H](CCCCN)C(=O)N[C@H](CC(C)C)C(=O)N[C@H](C)C(=O)N[C@H](CCCCN)C(=O)O` (H-SMSIARLGG[dK][dL][dA][dK][dL][dA][dK][dK][dL][dA][dK][dL][dA][dK]-OH), for which the result in the assay listed under Mus musculus [3] was Active.
